Values joined by “and” are separate entries in the source; they are usually repeats but may differ in a detail not shown here. Identical values can stand only once.
Legend:
[1] = biological target: T1, lipoxygenase from soybeans (Glycine max, UniProt P08170); assay: Inhibition of lipoxygenase from soybeans; type: biochemical; conditions: pH 7.4, read-out: inhibition of soybean lipoxygenase
T1 construct: host or cells: soybeans
T1 sequence (P08170 1-839): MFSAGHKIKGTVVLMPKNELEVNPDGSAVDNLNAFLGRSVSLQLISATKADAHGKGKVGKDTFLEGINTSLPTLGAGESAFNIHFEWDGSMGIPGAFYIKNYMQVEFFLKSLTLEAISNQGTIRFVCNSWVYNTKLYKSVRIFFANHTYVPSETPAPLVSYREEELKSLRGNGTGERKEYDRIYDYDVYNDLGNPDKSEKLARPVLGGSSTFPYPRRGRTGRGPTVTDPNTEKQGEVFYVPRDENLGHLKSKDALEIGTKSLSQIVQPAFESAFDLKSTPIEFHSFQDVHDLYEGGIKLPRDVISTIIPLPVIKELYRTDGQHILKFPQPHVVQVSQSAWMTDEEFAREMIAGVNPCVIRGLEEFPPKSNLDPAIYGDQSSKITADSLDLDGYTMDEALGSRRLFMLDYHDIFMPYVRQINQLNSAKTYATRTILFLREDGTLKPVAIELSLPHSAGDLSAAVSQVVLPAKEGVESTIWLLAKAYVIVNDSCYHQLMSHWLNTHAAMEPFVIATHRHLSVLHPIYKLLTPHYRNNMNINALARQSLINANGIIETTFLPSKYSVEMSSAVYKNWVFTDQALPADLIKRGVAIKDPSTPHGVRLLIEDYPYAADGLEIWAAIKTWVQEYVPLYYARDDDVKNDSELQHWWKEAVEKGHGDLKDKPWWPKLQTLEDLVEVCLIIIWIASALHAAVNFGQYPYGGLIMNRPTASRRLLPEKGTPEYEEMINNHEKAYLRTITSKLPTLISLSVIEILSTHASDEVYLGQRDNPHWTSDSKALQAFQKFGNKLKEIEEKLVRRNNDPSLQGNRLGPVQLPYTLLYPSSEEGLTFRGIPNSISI
Experimental: The inhibition of thrombocyte aggregation is likewise ascribed to the inhibition of lipoxygenase in the cells. It has thus been shown that the arachidonate-lipoxygenase activity of a microsome-free lysate of human thrombocyte concentrates is inhibited to the extent of 100% by means of 0.25 mM salicylhydroxamic acid. Moreover, it has been shown that also a series of further lipoxygenases are inhibited by means of the here described hydroxamic acids. The lipoxygenase from soybeans reacts the most insensitive, i.e. it is inhibited by means of 1 mM salicylhydroxamic acid at pH 7.4 to an extent of 60% and by means of 0.4 mM 2-hydroxy-1-napthylhydroxamic acid to an extent of 54%. In contrast, for the lipoxygenase from peas which come closer in their characteristics to human lipoxygenase, the following I50 -values are provided: salicyl hydroxamic acid, 5 μM, 2-hydroxy-1-napthylhydroxamic acid, 2 μM, 2(2'-napthoxy)-acethydroxamic acid, 2 μM. Moreover it has been shown that the formation lipoxygenase products of arachidonic acid in in vitro cultivated aorta endothelial cells of calves is hindered through 0.1 mM 2-hydroxy-1-napthylhydroxamic acids.

[2] = system: histamine-induced bronchoconstriction in guinea pigs; assay: Inhibition of histamine-induced bronchoconstriction in guinea pigs in vivo
Experimental: Accordingly, this complete animal model is called upon for further experimental determination of the anti-asthmatic activity of compounds of Formula I. The following describes a representative experiment with salicylhydroxamic acid (SHAM) in […] male guinea pigs. SHAM is applied in a dose of 95 mg/kg body weight; this dose lies a power of ten below the determined values for acute toxicity (LD50 -value).
After urethane narcosis, a flexible catheter is introduced into the V. jugularis dext. of each animal. After a tracheotomy a tracheotubular needle is inserted for respiration. Then, after muscle relaxation with Pavulon, mechanical respiration follows in a Body-Plethysmograph (16 min^-1, I/E=1/1, pI =20 cmH2 O; Muller et al., 1976; Oddoy et al., 1982).
Over a tubular flesh needle at the outwardly led tracheotubular needle, the breath volume per draw of breath is measured by means of a pneumotachograph. The values are separately integrated and registered with a light recorder.
After 3 minutes calm breathing with registration of the parameter, three animals are dosed each with 2.5 ml SHAM-solution (isotonic, 37° C., 0.1M), i.v. (SHAM was dissolved in water directly before the test by heating, and the solution was cooled quickly in an 37° C. water bath.)
After 5 minutes further observation there follows the delivery of 5 μg/kg KM Histamine i.v. for providing a submaximal bronchospasm. After a further 5 minutes, 50 μg/kg KM Histamine are injected i.v. This leads according to experience to a fast, complete bronchial spasm ("silent chest"). After registration of the breath volume over a further 5 minutes, the test is completed.
In 3 animals serving as control group, with otherwise analogous procedure, instead of SHAM, 2.5 ml isotonic NaCl-solution are applied.
The calm- and the 5-minute values are mean values (in cm amplitude) from each 5 draws of breath.
The values after the Histamine injections represent the draw of breath having the smallest volume (3rd to 5th draw of breath after injection).

[3] = individual animals, draw of breath having the smallest volume, listed as SHAM
[4] = individual animals, listed as SHAM

O=C(NO)c1ccccc1O [salicylhydroxamic acid]
inhibition at 1000 µM [1]: 60% | volume change, after 5 min ([2]; average value for n = 3, 5 min after first histamine injection): +7% | volume change, after 5 min ([2]; average value for n = 3, 5 min after second histamine injection): -20% | volume change, after 5 min ([2]; average value for n = 3, after SHAM i.v.): +7.7% | volume change, after 5 μg/kg Histamine ([2]; average value for n = 3, first histamine injection): -18% | volume change, after 5 μg/kg Histamine ([2]; average value for n = 3, second histamine injection): -68.9% | breath volume after i.v. injection ([2]; before histamine): insignificant rise | V-5 min after SHAM (breath volume change) ([2]; individual animals, 2.5 ml 0.1M SHAM i.v., cm amplitude): +0.1 cm and +0.2 cm and +0.45 cm | volume change, after 5 min ([2]; individual animals, 5 min after first histamine injection, listed as SHAM): +5% and +10% and +7.2% | volume change, after 5 min ([2]; individual animals, 5 min after second histamine injection, listed as SHAM): -04% and -22% and -35% | V after 5 μg Hist. i.v. [2, 3]: -0.4 cm and -2.2 cm | V after 50 μg Hist. i.v. [2, 3]: -2.4 cm and -4.4 cm and -1.6 cm | volume change, after 5 μg/kg Histamine ([2]; individual animals, first histamine injection, listed as SHAM): -8% and -48% and 0% | V-5 min thereafter (after 5 μg Hist.) [2, 4]: +0.26 cm and +0.48 cm and +0.19 cm | V-5 min thereafter (after 50 μg Hist.) [2, 4]: -0.2 cm and -1.0 cm and -0.9 cm | volume change, after 5 min ([2]; individual animals, percent of the starting draw volume, after SHAM i.v.): +2% and +4% and +17% | bronchial spasm after histamine injections ([2]; pre-treated animals versus control group): smaller bronchial spasm than the animals of the control group | spontaneous regression of histamine induced bronchial spasm ([2]; treated animals versus control group): more quickly and more extensively than in the control group

Source: patent US4670469A, “Hydroxamic acid and pharmaceutical preparations containing the same” (VEB Arzneimittelwerk Dresden, priority 1983, dated 1987)
